Common to all, as to format: in vivo
Experiment [1] concerns common ragweed (Ambrosia artemisiifolia L.). Nature of the experiment: Test Example 11: pot soil treatment, growth inhibition of common ragweed. The settings on record: dose 10 g/ha, 21st day after treatment, read-out: Growth inhibition rate (%) of common ragweed, Measured value. From the text: (§1) On the 14th day after treatment, the state of growth of the summergrass was visually observed to determine the growth inhibition rate in accordance with the following evaluation standard. The growth inhibition rate (%) (measured value) and the growth inhibition rate (%) (calculated value) calculated by the Colby's formula are shown in Table 1. Growth inhibition rate (%)=0 (equivalent to the non-treated area) to 100 (complete kill) Upland field soil was put into a 1/160,000 ha pot, and seeds of common ragweed (Ambrosia artemisiifolia L.) were sown. On the next day, predetermined amounts of flazasulfuron and imazapic were diluted with water (in an amount corresponding to 300 L/ha), and applied for soil treatment by a small sprayer. On the 21st day after treatment, the state of growth of the common ragweed was visually observed to determine the growth inhibition rate. The growth inhibition rate (%) (measured value) and the growth inhibition rate (%) calculated in the same manner as in Test Example 1 are shown in Table 11.

Experiment [2] concerns persian speedwell (Veronica persica Poir.). Nature of the experiment: Test Example 8: pot soil treatment, growth inhibition of persian speedwell. Conditions: 21st day after treatment, read-out: Growth inhibition rate (%) of persian speedwell, Measured value.
For experiment [3], the system named is guinea grass (Panicum maximum Jacq.). Nature of the experiment: Test Example 4: pot soil treatment, growth inhibition of guinea grass. Conditions: Megathyrsus maximus, dose 10 g/ha, 22nd day after treatment, read-out: Growth inhibition rate (%) of guinea grass, Measured value.
Source text: as §1, with “guinea grass (Panicum maximum Jacq.)” for “common ragweed (Ambrosia artemisiifolia L.)”, “mesotrione” for “imazapic”, “22nd” for “21st”, “guinea grass” for “common ragweed”, “4.” for “11.”

In experiment [4] the test system is summergrass (Digitaria ciliaris (Retz.) Koeler). Nature of the experiment: Test Example 1: pot soil treatment, growth inhibition of summergrass. The settings on record: dose 10 g/ha, 14th day after treatment, read-out: Growth inhibition rate (%) of summergrass, Measured value. As to the method:
Upland field soil was put into a 1/160,000 ha pot, and seeds of summergrass (Digitaria ciliaris (Retz.) Koeler) were sown. On the next day, predetermined amounts of flazasulfuron and imazapic were diluted with water (in an amount corresponding to 300 L/ha), and applied for soil treatment by a small sprayer. On the 14th day after treatment, the state of growth of the summergrass was visually observed to determine the growth inhibition rate in accordance with the following evaluation standard. The growth inhibition rate (%) (measured value) and the growth inhibition rate (%) (calculated value) calculated by the Colby's formula are shown in Table 1. Growth inhibition rate (%)=0 (equivalent to the non-treated area) to 100 (complete kill)

The test system of experiment [5] is field bindweed (Convolvulus arvensis L.). Nature of the experiment: Test Example 15: pot soil treatment, growth inhibition of field bindweed. The settings on record: dose 30 g/ha, 21st day after treatment, read-out: Growth inhibition rate (%) of field bindweed, Measured value.
Source text: as §1, with “field bindweed (Convolvulus arvensis” for “common ragweed (Ambrosia artemisiifolia”, “flazasulfuron, mesotrione” for “flazasulfuron”, “field bindweed” for “common ragweed”, “15.” for “11.”

The subject of experiment [6] is velvetleaf (Abutilon theophrasti MEDIC.). Nature of the experiment: Test Example 13: pot soil treatment, growth inhibition of velvetleaf. Conditions: dose 30 g/ha, 21st day after treatment, read-out: Growth inhibition rate (%) of velvetleaf, Measured value.
Experiment [7] relates to barnyardgrass (Echinochloa crus-galli L). Nature of the experiment: Test Example 9: pot soil treatment, growth inhibition of barnyardgrass. The settings on record: dose 30 g/ha, 21st day after treatment, read-out: Growth inhibition rate (%) of barnyardgrass, Measured value.
Source text: as §1, with “barnyardgrass (Echinochloa crus-galli L)” for “common ragweed (Ambrosia artemisiifolia L.)”, “hexazinone” for “imazapic”, “barnyardgrass” for “common ragweed”, “9.” for “11.”

In experiment [8] the test system is wild oat (Avena fatua L.). Nature of the experiment: Test Example 3: pot soil treatment, growth inhibition of wild oat. Conditions: 22nd day after treatment, read-out: Growth inhibition rate (%) of wild oat, Measured value.
Source text: as §1, with “wild oat (Avena fatua” for “common ragweed (Ambrosia artemisiifolia”, “flazasulfuron, mesotrione” for “flazasulfuron”, “22nd” for “21st”, “wild oat” for “common ragweed”, “3.” for “11.”

Turning to `COc1cc(OC)nc(NC(=O)NS(=O)(=O)c2ncccc2C(F)(F)F)n1` [Flazasulfuron, flazasulfuron], the inhibition – broadly, the percentage by which the read-out fell short of the control – at 10 g/ha in experiment [1] was 80%; in experiment [3], 0%; in experiment [4], 15%. Also, the inhibition at 50 g/ha was 20% in experiment [2] and 0% in experiment [8] (dose 50 g/ha). Besides, the inhibition at 30 g/ha came out at 0% in experiment [5], 75% in experiment [6], 90% in experiment [7] and 40% in experiment [8] (dose 30 g/ha).
